From PubChem BioAssay AID328 (DTP/NCI, 2004)
Several values for one entry are separate records, joined by “and”; a condition that tells them apart may be missing. Equal entries are not always repeated. Inconclusive results and toxic doses are left out. Rule for the calls: active = survival T/C of 150% or more; inactive = T/C below 125% in these data.

Test system: BDF1 mice, P388 leukemia ip, median survival T/C
Test: NCI In Vivo Anticancer Drug Screen. Data for tumor model P388 Leukemia (intraperitoneal) in B6D2F1 (BDF1) mice
Details: endpoint: median survival time, higher = longer survival
How it was run: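 Mice carrying the transplantable tumour receive compound or vehicle. Survival is followed in each arm, and the treated measure is divided by the vehicle measure.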

[1] = dose: 100.0 mg/kg/injection, schedule: Q01DX001 (ip), vehicle: Klucel (hydroxypropylcellulose) (HPC)
[2] = dose: 200.0 mg/kg/injection, schedule: Q01DX001 (ip), vehicle: Klucel (hydroxypropylcellulose) (HPC)
[3] = dose: 400.0 mg/kg/injection, schedule: Q01DX001 (ip), vehicle: Klucel (hydroxypropylcellulose) (HPC)
[4] = dose: 50.0 mg/kg/injection, schedule: Q01DX001 (ip), vehicle: saline with Tween-80
[5] = dose: 100.0 mg/kg/injection, schedule: Q01DX001 (ip), vehicle: saline with Tween-80
[6] = dose: 200.0 mg/kg/injection, schedule: Q01DX001 (ip), vehicle: saline with Tween-80
[7] = dose: 100.0 mg/kg/injection, schedule: Q04DX003 (ip), vehicle: Klucel (hydroxypropylcellulose) (HPC)
[8] = dose: 200.0 mg/kg/injection, schedule: Q04DX003 (ip), vehicle: Klucel (hydroxypropylcellulose) (HPC)
[9] = dose: 400.0 mg/kg/injection, schedule: Q04DX003 (ip), vehicle: Klucel (hydroxypropylcellulose) (HPC)
[10] = dose: 100.0 mg/kg/injection, schedule: Q04DX003 (ip), vehicle: saline with Tween-80
[11] = dose: 200.0 mg/kg/injection, schedule: Q04DX003 (ip), vehicle: saline with Tween-80
[12] = dose: 400.0 mg/kg/injection, schedule: Q04DX003 (ip), vehicle: saline with Tween-80
[13] = dose: 12.5 mg/kg/injection, schedule: Q01DX009 (ip), vehicle: saline with Tween-80
[14] = dose: 25.0 mg/kg/injection, schedule: Q01DX009 (ip), vehicle: saline with Tween-80
[15] = dose: 50.0 mg/kg/injection, schedule: Q01DX009 (ip), vehicle: gum acacia
[16] = dose: 50.0 mg/kg/injection, schedule: Q01DX009 (ip), vehicle: saline with Tween-80
[17] = dose: 50.0 mg/kg/injection, schedule: Q04DX003 (ip), vehicle: gum acacia
[18] = dose: 100.0 mg/kg/injection, schedule: Q04DX003 (ip), vehicle: gum acacia
[19] = dose: 100.0 mg/kg/injection, schedule: Q01DX009 (ip), vehicle: saline with Tween-80
[20] = dose: 200.0 mg/kg/injection, schedule: Q01DX009 (ip), vehicle: saline with Tween-80
[21] = dose: 100.0 mg/kg/injection, schedule: Q04DX003 (ip), vehicle: saline

Measured: T/C

COc1ccc(C(N)C(=O)O)cc1 (stereo not given)
inactive: [1] 100 % of control | [2] 109 % of control | [3] 109 % of control

O=C1C2CCC(C2)[CH]1[Hg][Cl] (stereo not given)
inactive: dose: 1.56 mg/kg/injection, schedule: Q01DX009 (ip), vehicle: saline with Tween-80 102 % of control | dose: 3.13 mg/kg/injection, schedule: Q01DX009 (ip), vehicle: saline with Tween-80 103 % of control | dose: 6.25 mg/kg/injection, schedule: Q01DX009 (ip), vehicle: saline with Tween-80 118 % of control

CCCCCCCCCCCCCCCCCCOc1cccc(C(F)(F)F)c1
inactive: [4] 105 % of control | [5] 100 % of control | [6] 90 % of control

CC(C)(C)C1CCC(O)C(Cl)C1 (stereo not given)
inactive: dose: 50.0 mg/kg/injection, schedule: Q04DX003 (ip), vehicle: Klucel (hydroxypropylcellulose) (HPC) 95 % of control | [7] 109 % of control | [8] 109 % of control

CC(C)(C)OC(=O)NNC(=O)C(CSC(c1ccccc1)c1ccccc1)N1C(=O)c2ccccc2C1=O (stereo not given)
inactive: [7] 95 % of control | [8] 100 % of control | [9] 90 % of control

Cc1cc(C)[n+](C)c2cc3ccccc3cc12
active: dose: 50.0 mg/kg/injection, schedule: Q01DX005 (ip), vehicle: saline with Tween-80 155 % of control

COc1ccc(/C=C/C(=O)c2ccc(OCc3ccccc3)c(OC)c2)cc1OC
inactive: dose: 50.0 mg/kg/injection, schedule: Q04DX003 (ip), vehicle: saline with Tween-80 105 % of control | [10] 99 % of control | [11] 87 % of control | [12] 87 % of control

OC1CSC1
inactive: dose: 50.0 mg/kg/injection, schedule: Q01DX009 (ip), vehicle: saline + alcohol 105 % of control | dose: 100.0 mg/kg/injection, schedule: Q01DX009 (ip), vehicle: saline + alcohol 100 % of control | dose: 200.0 mg/kg/injection, schedule: Q01DX009 (ip), vehicle: saline + alcohol 91 % of control | dose: 400.0 mg/kg/injection, schedule: Q01DX009 (ip), vehicle: saline + alcohol 98 % of control

O=C(CC(=O)C(F)(F)F)c1csc2ccccc12
inactive: [13] 100 % of control | dose: 25.0 mg/kg/injection, schedule: Q01DX009 (ip), vehicle: gum acacia 112 % of control | [14] 112 % of control | dose: 25.0 mg/kg/injection, schedule: Q04DX003 (ip), vehicle: gum acacia 111 % of control | dose: 50.0 mg/kg/injection, schedule: Q01DX001 (ip), vehicle: Klucel (hydroxypropylcellulose) (HPC) 104 % of control | [15] 120 % of control | [16] 91 % of control | [17] 100 % of control | dose: 66.0 mg/kg/injection, schedule: Q01DX009 (ip), vehicle: gum acacia 107 % of control | dose: 66.0 mg/kg/injection, schedule: Q01DX009 (ip), vehicle: saline with Tween-80 120 % of control | dose: 75.0 mg/kg/injection, schedule: Q01DX009 (ip), vehicle: Klucel (hydroxypropylcellulose) (HPC) 115 % of control | [1] 113 % of control | [18] 107 % of control and 111 % of control | dose: 115.0 mg/kg/injection, schedule: Q01DX009 (ip), vehicle: Klucel (hydroxypropylcellulose) (HPC) 120 % of control | dose: 150.0 mg/kg/injection, schedule: Q01DX009 (ip), vehicle: gum acacia 100 % of control | [2] 86 % of control

CCCCCCCCCCCCCCCC[N+]1([O-])CCCC1
inactive: [13] 110 % of control | [14] 99 % of control | [16] 108 % of control

CC1(C)CC(=O)C(C(c2cccc(O)c2O)C2C(=O)CC(C)(C)CC2=O)C(=O)C1
inactive: [16] 123 % of control | [19] 100 % of control | [20] 91 % of control

CCCCCCCCCCCCCCCCOc1ccc(CC)cc1
inactive: [4] 95 % of control | [5] 90 % of control | [6] 100 % of control

CCOC(=O)C1OC12CCCCC2 (stereo not given)
inactive: [1] 109 % of control | [2] 100 % of control | [8] 100 % of control | [3] 113 % of control | [9] 116 % of control

CCCC1CC[N-]CC1.CCCC1CC[N-]CC1.[Cl][Pt+2][Cl]
inactive: [14] 122 % of control | dose: 44.0 mg/kg/injection, schedule: Q04DX003 (ip), vehicle: saline 96 % of control | dose: 50.0 mg/kg/injection, schedule: Q01DX009 (ip), vehicle: Klucel (hydroxypropylcellulose) (HPC) 118 % of control | dose: 66.0 mg/kg/injection, schedule: Q04DX003 (ip), vehicle: saline 116 % of control | [21] 112 % of control | dose: 132.0 mg/kg/injection, schedule: Q04DX003 (ip), vehicle: saline with Tween-80 100 % of control | [11] 95 % of control | dose: 300.0 mg/kg/injection, schedule: Q04DX003 (ip), vehicle: Klucel (hydroxypropylcellulose) (HPC) 100 % of control

CCCCc1[nH]nc2c1C(=O)C(Nc1ccccc1)=CC2=O
inactive: [10] 103 % of control | [11] 100 % of control | [12] 100 % of control

NC(=O)C1(NC2CCCCC2)CCN(Cc2ccccc2)CC1
inactive: [15] 107 % of control | [17] 100 % of control | dose: 100.0 mg/kg/injection, schedule: Q01DX009 (ip), vehicle: gum acacia 107 % of control | [18] 91 % of control

O=S(=O)(O)CCN(CCO)CCO
inactive: dose: 100.0 mg/kg/injection, schedule: Q01DX009 (ip), vehicle: saline 87 % of control | [21] 109 % of control | dose: 200.0 mg/kg/injection, schedule: Q04DX003 (ip), vehicle: saline 104 % of control | dose: 400.0 mg/kg/injection, schedule: Q01DX009 (ip), vehicle: saline 87 % of control | dose: 400.0 mg/kg/injection, schedule: Q04DX003 (ip), vehicle: saline 95 % of control

CCC(C(=O)O)C(=O)O.[NH-]CC[NH-].[Pt+2]
active: dose: 50.0 mg/kg/injection, schedule: Q04DX003 (ip), vehicle: saline 154 % of control
inactive: dose: 25.0 mg/kg/injection, schedule: Q04DX003 (ip), vehicle: saline 100 % of control | dose: 33.0 mg/kg/injection, schedule: Q04DX003 (ip), vehicle: saline 118 % of control

COc1cccc(CCNC(=O)CC(=O)O)c1OC
inactive: [10] 100 % of control | [11] 105 % of control | [12] 100 % of control

O=C1Oc2ccccc2C(=O)/C1=C1\SSC(c2ccccc2)=C1c1ccccc1
inactive: [16] 99 % of control | [19] 96 % of control | [20] 96 % of control

OCCN(CCO)c1cc(OCc2ccccc2)cc(OCc2ccccc2)c1
inactive: dose: 6.25 mg/kg/injection, schedule: Q01DX009 (ip), vehicle: water 103 % of control | dose: 12.5 mg/kg/injection, schedule: Q01DX009 (ip), vehicle: water 99 % of control | dose: 25.0 mg/kg/injection, schedule: Q01DX009 (ip), vehicle: water 91 % of control and 103 % of control | dose: 50.0 mg/kg/injection, schedule: Q01DX009 (ip), vehicle: water 100 % of control | dose: 50.0 mg/kg/injection, schedule: Q04DX003 (ip), vehicle: water 100 % of control | dose: 100.0 mg/kg/injection, schedule: Q04DX003 (ip), vehicle: water 100 % of control | dose: 200.0 mg/kg/injection, schedule: Q04DX003 (ip), vehicle: water 95 % of control | dose: 400.0 mg/kg/injection, schedule: Q04DX003 (ip), vehicle: water 100 % of control

O=C(O)c1cc([N+](=O)[O-])cc([N+](=O)[O-])c1 (tested in a mixture with another compound)
inactive: dose: 3.13 mg/kg/injection, schedule: Q04DX002 (ip), vehicle: saline with Tween-80 100 % of control | dose: 6.25 mg/kg/injection, schedule: Q04DX002 (ip), vehicle: saline with Tween-80 108 % of control | dose: 12.5 mg/kg/injection, schedule: Q04DX002 (ip), vehicle: saline with Tween-80 104 % of control | dose: 25.0 mg/kg/injection, schedule: Q04DX002 (ip), vehicle: saline with Tween-80 112 % of control
